Data on 2 molecules can be found in patent US11357779B2 (G1 Therapeutics, Inc., priority 2018, dated 2022).

Data set [1] is described as follows: Steady-state AUC0-24,ss, (AUC0-24,ss)/dose, half-life and time to steady state: Compound I versus palbociclib, ribociclib, abemaciclib. The settings on record: for (AUC0-24,ss)/Dose (mg): in h·ng/mL/mg. Format: in vivo, human. From the text:
The time to reach steady state was defined as five half-lives (97% steady state achieved). […] The AUC data are presented as the arithmetic mean. […] The AUC data are presented as the geometric mean. The steady-state AUC0-24 for various BID doses of abemaciclib provided in Table 89 was obtained from the above cited prior published studies. The AUC data are presented as the geometric mean.

The conditions of data set [2]: geometric mean, cited from earlier work.
For data set [3] the following is noted: cited from earlier work.
For data set [4] the following is noted: trial not given; cited from earlier work.
The conditions of data set [5]: abemaciclib, cited from earlier work.
The conditions of data set [6]: MONALEESA-2; cited from earlier work.
Where [7] appears, read: 600 mg QD, FDA labeled dose, five half-lives.

Each structure is given as a SMILES string. Like-named read-outs stand apart in the source and are kept apart here.

`CCN1CCN(Cc2ccc(Nc3ncc(F)c(-c4cc(F)c5nc(C)n(C(C)C)c5c4)n3)nc2)CC1` [abemaciclib, 2-pyrimidinamine, N-[5-[(4-ethyl-1-piperazinyl)methyl]-2-pyridinyl]-5-fluoro-4-[4-fluoro-2-methyl-1-(1-methylethyl)-1H-benzimidazol-6-yl]-]: the “(AUC0-24,ss)/Dose (mg)” value in data set [1] (75 mg BID) is listed as 17.33; in data set [1] (100 mg BID), 39.10; in data set [1] (150 mg BID), 28.53; in data set [1] (200 mg BID) it was 27.60. For the same molecule, the “AUC0-24,ss” value in data set [2] (75 mg BID) was 1300 ng·h/mL; in data set [2] (100 mg BID), 3910 ng·h/mL; in data set [2] (150 mg BID), 4280 ng·h/mL; in data set [2] (200 mg BID), 5520 ng·h/mL. Besides, the “Diarrhea, patients” value in data set [3] (MONARCH 1, abemaciclib alone) was 90%. In addition, the “Grade 3 diarrhea, patients” value in data set [3] (MONARCH 1, abemaciclib alone) is listed as 20%. The “Neutropenia, patients” value in data set [3] (MONARCH 1, abemaciclib alone) is listed as 37%. Moreover, the “Grade >3 decrease in neutrophil count (based on laboratory findings), patients” value in data set [3] (MONARCH 1) was 27%. Also, the “patients with diarrhea required a dose reduction” value in data set [4] is 22%. Also, in data set [4], the “patients with diarrhea required dose omission” value is 22%. Besides, the entries for the “estimated geometric mean accumulation ratio” value in data set [5] (based on AUC) and in data set [5] (based on Cmax) were 3.2 (59% CV) and 2.3 (50% CV), respectively. The T1/2 result in data set [5] (human) was “roughly 18.3 hours”.

For `CN(C)C(=O)c1cc2cnc(Nc3ccc(N4CCNCC4)cn3)nc2n1C1CCCC1` [ribociclib, 7-cyclopentyl-N,N-dimethyl-2-((5-(piperazin-1-yl)pyridin-2-yl)amino)-7H-pyrrolo[2,3-d]pyrimidine-6-carboxamide], in data set [1] (setting [7]), the “Time to Steady State” value amounted to 6.8 days and the “Time to Steady-State” value worked out at 162.5 h. Also, the “neutropenia, most frequently reported adverse reaction” value in data set [6] is 75%.
